Measured values reported in PMC10367051, “Comprehensive Mechanistic View of the Hydrolysis of Oxadiazole-Based Inhibitors by Histone Deacetylase 6 (HDAC6)” (ACS Chemical Biology, 2023).

How the values were obtained:
[1] = target: T1, zHDAC6 (WT) (Danio rerio, UniProt F8W4B7); assay: Inhibition assay, zebrafish HDAC6 catalytic DD2 domain, wild type; assay type: biochemical
T1 construct: Danio rerio HDAC6 (amino acids 440–798; zHDAC6); His (N, cleaved yes); MBP (N, cleaved yes); made in house; host or cells: RIPL Escherichia coli
T1 sequence (F8W4B7 440-798): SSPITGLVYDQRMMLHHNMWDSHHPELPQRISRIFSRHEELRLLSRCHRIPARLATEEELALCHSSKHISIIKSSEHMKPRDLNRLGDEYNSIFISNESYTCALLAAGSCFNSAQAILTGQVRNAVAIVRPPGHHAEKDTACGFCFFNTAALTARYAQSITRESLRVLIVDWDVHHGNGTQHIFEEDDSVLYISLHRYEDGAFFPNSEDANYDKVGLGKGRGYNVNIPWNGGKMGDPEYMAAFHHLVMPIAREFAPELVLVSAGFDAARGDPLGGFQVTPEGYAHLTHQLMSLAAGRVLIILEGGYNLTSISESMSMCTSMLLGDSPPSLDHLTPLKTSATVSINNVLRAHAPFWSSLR
Procedure: The second catalytic domain of Danio rerio HDAC6 (amino acids 440–798; zHDAC6) was expressed in RIPL Escherichia coli as described previously using the pEC566-zHDAC6 expression vector.[16],[38] Briefly, bacteria were incubated at 37 °C with shaking (250 rpm) until the optical density reached an OD600 = 0.5. Then, the culture was cooled to 18 °C for 1 h, and recombinant protein expression was induced by the addition of 75 μM isopropyl β-D-1-thiogalactopyranoside together with 200 μM ZnSO4. The culture was grown at 18 °C for an additional 18 h and harvested by centrifugation at 5500g for 15 min. The cell pellet was resuspended in the lysis buffer (50 mM phosphate, 300 mM NaCl, 10% glycerol, and 20 mM imidazole at pH 8; 5 mL g^–1 bacterial pellet) and lysed by three passages through EmulsiFlex (Avestin). Cell lysates were centrifuged (15,000g at 4 °C for 20 min), and the fusion protein in the supernatant was purified via Ni-NTA chromatography. […] The purity of protein preparations was monitored by SDS-PAGE (Figure S2).
Optimized fluorometric assays were used to determine inhibition constants of studied compounds against individual HDAC isoforms as described previously.[32] […] Deacetylation reactions were monitored either by high-performance liquid chromatography (HPLC) (HDAC10) or by quantification of released AMC (λex/λem = 365/440 nm) using a CLARIOstar plate reader (BMG Labtech GmbH).

[2] = Control reaction without the enzyme (assay buffer, LC-MS/MS); assay type: physicochemical; conditions: 20 μM 8, assay buffer pH 7.4, 30 °C
Procedure: (§1) Mass spectrometry quantification of inhibitors/reaction products was carried out with a Shimadzu LCMS-8040 instrument (Shimadzu, HPLC Prominence system). Analytes were separated on a Kinetex XB-C18 2.6 μm, 100 Å column (50 × 2.1 mm; Phenomenex) in a linear 15–60% CH3CN/H2O gradient containing 0.1% formic acid at a flow rate of 0.8 mL min^–1 over 4 min. Multiple reaction monitoring (MRM) parameters were optimized for each analyte, and corresponding major CID fragments were used for quantification. Analytes were quantified using corresponding calibration curves generated from pure compounds dissolved in water.
Twenty micromolar solutions of compounds were mixed with 1 μM zHDAC6 in a 96-well plate in an assay buffer comprising 50 mM HEPES, 140 mM NaCl, and 10 mM KCl at pH 7.4. […] Four microliter aliquots of reaction mixtures were injected into the system directly from the 96-well plate, and inhibitors/reaction products were quantitated as described above.

[3] = tested on: HEK293T cell lysates; assay: Inhibitor hydrolysis in HEK293T cell lysates (LC-MS/MS); assay type: in vitro ADME; conditions: 20 μM 8, 2.5 mg mL^–1 protein, 37 °C
Procedure: as §1
HEK293T cells and the HEK293T cell line stably transfected with human HDAC6 were grown in FreeStyle 293 medium supplemented with 1% FBS. Cells were harvested by centrifugation at 500g for 5 min, and cell pellets were resuspended in the lysis buffer (50 mM HEPES, 140 mM NaCl, 10 mM KCl, and 0.5% NP-40 at pH 7.4). Following short sonication (3 × 5 s), the cell lysates were centrifuged at 20,000g for 10 min, supernatants were transferred to fresh tubes, and the total protein concentration was adjusted to 4 mg mL^–1 by the addition of the lysis buffer. […] Following 15 min incubation on ice, stopped reactions were centrifuged at 20,000g for 10 min, and supernatants were analyzed by LC–MS as described above.

IC50 [1] [µM]	SMILES	hydrolysis in the control reaction without the enzyme [2]	hydrolysis in HEK293T cell lysate [3]
3.87 ± 1.64	CS(=O)(=O)N(Cc1ccc(C(=O)NN)cn1)c1cccc(Cl)c1 [compound 4]	–	–
41.7	CS(=O)(=O)N(Cc1ccc(C(=O)NNC(=O)C(F)F)cn1)c1cccc(Cl)c1 [compound 6]	–	–
–	CS(=O)(=O)N(Cc1ccc(-c2nnc(C(F)F)o2)cn1)c1cccc(Cl)c1 [compound 8]	no hydrolysis was observed	hydrolyzed 8 to 6 and 4
